Patent publication US20080014133A1, “Extraction Of Radionuclides By Crown Ether-Containing Extractants” (priority 2004, published 2008)

Columns and labels:
Assay type in all cases: physicochemical
[1] = Behaviour of crown ether in decane extraction system (Table 1 remarks); conditions: crown ether 0.1 mole/l in Decane
Procedure: Study was carried out for determining the distribution ratios of radionuclides, for example, strontium or cesium to be extracted by the extractants according to the invention containing various crown ethers as a complexing agent: bis(tert-butylbenzo)-18-crown-6 (subsequently referred to as DTBDB18C6), di-isooctylbenzo-18-crown-6 (subsequently referred to as DIODB18C6), bis(tert-butylcyclohexane-18-crown-6 (subsequently referred to as DTBDCH18C6), di-isooxyldicyclohexane-18-crown-6 (subsequently referred to as DIODCH18C6), bicyclohexane-18-crown-6 (subsequently referred to as DCH18C6) or dibenzo-21-crown-7 (subsequently referred to as DB21C7), in an organic solvent according to the invention: polyfluorinated telomeric alcohol 1,1,7-trihydrododecafluoroheptanol-1 (subsequently referred to as fluoroheptanol n3).
For comparison, the distribution ratios of strontium and cesium were determined using extractants containing similar crown ethers in another organic solvent (decane).
Taken for the tests were experimental aqueous nitrate solutions containing strontium and cesium in a concentration of 1 g/l with a content of nitric acid of about 3.0 mol/l.

[2] = Interaction of extractants with sodium (organic/aqueous phase concentration)
Procedure: The characteristics of the extractants according to the invention in the process of extraction of sodium from acidic aqueous solutions of high-level waste were determined. For this purpose, the concentration of sodium in the organic and aqueous phases containing extractants based on DTBDB18C6 or DCH18C6 or DB21C7 in a concentration about of 0.05 mol/l in fluoroheptanol n3 were analyzed.

[3] = Solubility of crown ethers in water and nitric acid from extractants with different organic solvents
Procedure: The study of solubility of extractants according to the invention and the extractants containing similar crown ethers in other solvents in aqueous and nitrate solutions was carried out.
Taken for the tests were crown ethers containing DCH18C6 or DB21C7 in a concentration of about 0.1 mole/l in different organic solvents. The extractants were mixed with aqueous or nitrate solutions with a content of nitric acid 3 mole/l in a closed thermostatically controlled chamber for 3 hours. Then the obtained water-organic systems were separated. The aqueous part after settling down and filtering was analyzed for a content of crown ethers using photometric measurements.

[4] = Influence of nitric acid concentration on extraction of sodium; conditions: crown ether about 0.1 mol/l in Fluoroheptanol n3
Procedure: Selected for study were extractants containing crown ethers: DB18C6, DTBDB18C6, DCH18C6 or DB21C7 in a concentration of about 0.1 mol/l in Fluoroheptanol n3. Used as experimental solutions were aqueous solutions of sodium nitrate whose concentration was determined using radiometric techniques on previously added aliquot of a sodium-22 isotope.

[5] = Extraction of cations of different metals (Table 8); conditions: for Distribution ratios, Pb: initial 0.05 g/l; for Distribution ratios, Mn: initial 0.4 g/l; for Distribution ratios, Ru: initial 0.75 g/l; for Distribution ratios, Ba / Distribution ratios, Cr / Distribution ratios, Cs / Distribution ratios, Sr / Distribution ratios, Zr: initial 1.0 g/l; for Distribution ratios, Ba / Distribution ratios, Al: crown ether 0.05 mol/l in Fluoroheptanol n3 80% / synthanol 20%, nitric acid about 190 g/l; for Distribution ratios, Ca: initial 2.0 g/l; for Distribution ratios, Ni: initial 4.0 g/l; for Distribution ratios, Al: initial 6.0 g/l; for Distribution ratios, Fe / Distribution ratios, Na: initial 10.0 g/l; for Distribution ratios, Rare-earth: initial 25.0 g/l
From the text: A process of extraction of cations of different metals from aqueous nitrate solutions was studied by processing them using the extractants according to the invention containing DCH18C6 or DB21C7 in an organic solvent comprising: Fluoroheptanol n3—80% by volume and synthanol—20% by volume at a concentration of crown ethers of 0.05 mol/l and a content of nitric acid about of 190 g/l. For comparison, the data were used given in a patent specification (U.S. Pat. No. 4,749,518, A) describing similar tests of extractants containing Crown XVI or Crown XVII with a cation exchanger—dinanylnaphthalene sulfonic acid in a matrix solution containing tributyl phosphate and kerosene.
The solutions were contacted with the extractants according to the invention in temperature-controlled ([…]) separating funnels for 5 minutes at a ratio of organic and aqueous phases of 1:1. After settling within 60 minutes, the phases were separated, and the aqueous phase was analyzed to determine the concentration of the elements.

[6] = Radiation resistance of the extractants (gamma irradiation)
From the text: The radiation resistance of the extractants according to the invention used for extraction radionuclides of strontium or cesium was studied. For this purpose, reaction mixtures consisting of biphase water-organic systems containing extractants based on crown ethers DCH18C6 or DB21C7 in Fluoroheptanol n3 and aqueous nitrate waste solutions, and, for comparison, reaction mixtures containing extractants based on crown ethers Crown XVI or Crown XVII with a cation exchanger—dinanylnaphthalene of sulfonic acids in a matrix solution comprising tributyl phosphate and kerosene were irradiated with gamma-rays […] in a temperature-controlled cell of stainless steel with continuous agitation by bubbling. The maximum integrated radiation dose was equal to 285.3 kGr. The extractant samples were tested and the extraction characteristics were measured before and after the irradiation to determine a decrease of the distribution ratio DMe due to the radiological destruction of extractant components.

[7] = Concentration of crown ether in extracted products, dynamic strontium extraction (7.1)
From the text: A starting aqueous solution whose composition and concentration of the components are given in Table 3 for a solution No.1 was contacted with the extractant according to the invention containing 0.05 mole/l of DCH18C6 in a solvent containing 20% by volume of synthanol and 80% by volume of Fluoroheptanol n3 in a continuous countercurrent process on a facility with extractors such as “mixer-settler” devices with impulse agitation and phase transportation. The extraction included eight steps of extraction, two washing steps, eight re-extraction steps and two steps of regeneration of the reused extractant.
When running the facility, radiometric monitoring devices were used to control the concentration of strontium in the refined products, re-extracts and reclaims, as well as the concentration of the crown ethers in the extracted products.

[8] = sodium in the aqueous phase 0.01 mol/l, crown ether about 0.05 mol/l in fluoroheptanol n3
[9] = sodium in the aqueous phase 0.1 mol/l, crown ether about 0.05 mol/l
[10] = sodium in the aqueous phase 0.2 mol/l, crown ether about 0.05 mol/l
[11] = sodium in the aqueous phase 0.4 mol/l, crown ether about 0.05 mol/l
[12] = solvent 2,2-dihydrotrifluoroethyl pentafluoroethyl ether, H2O
[13] = solvent 2,2-dihydrotrifluoroethyl pentafluoroethyl ether, HNO3 3 mole/l
[14] = solvent Fluoroheptanol n3, HNO3 3 mole/l
[15] = solvent Tetrachloroethane, HNO3 3 mole/l, crown ether about 0.1 mole/l, 3 hours
[16] = solvent Trichlorethylene, HNO3 3 mole/l
[17] = solvent Trichlorobenzene, HNO3 3 mole/l

With `c1ccc2c(c1)OCCOCCOCCOc1ccccc1OCCOCCO2` [DB21C7, dibenzo-21-crown-7] the Remarks [1] was “Is insoluble”, the “Sodium concentration in the organic phase” value (“Sodium concentration” for short) [2, 8] was 0 mol/L and the “Sodium concentration” value [2, 9] was 0.01 mol/L. The “Sodium concentration” value [2, 10] was 0.018 mol/L, the “Sodium concentration” value [2, 11] was 0.035 mol/L and the “Concentration of crown ether in an aqueous phase” value [3, 12] was 0.071 mol/l × 10^−3. The “Concentration of crown ether in an aqueous phase” value [3, 13] was 0.112 mol/l × 10^−3, the “Concentration of crown ether in an aqueous phase” value ([3]; solvent Fluoroheptanol n3, H2O) was <0.025 mol/l × 10^−3 and the “Concentration of crown ether in an aqueous phase” value [3, 14] was 0.068 mol/l × 10^−3. The “Concentration of crown ether in an aqueous phase” value ([3]; solvent Tetrachloroethane, H2O) was 0.173 mol/l × 10^−3, the “Concentration of crown ether in an aqueous phase” value [3, 15] was 0.159 mol/l × 10^−3 and the Remarks ([3]; solvent Tetrachloropropane) was “Insoluble”. The “Concentration of crown ether in an aqueous phase” value ([3]; solvent Trichlorethylene, H2O) was 0.188 mol/l × 10^−3, the “Concentration of crown ether in an aqueous phase” value [3, 16] was 0.218 mol/l × 10^−3 and the “Concentration of crown ether in an aqueous phase” value ([3]; solvent Trichlorobenzene, H2O) was 0.168 mol/l × 10^−3. For the same molecule, the “Concentration of crown ether in an aqueous phase” value [3, 17] was 0.173 mol/l × 10^−3, the “Distribution ratios of sodium” value ([4]; nitric acid 0 mol/l) was 0 and the “Distribution ratios of sodium” value ([4]; nitric acid 0.1 mol/l) was 0. The “Distribution ratios of sodium” value ([4]; nitric acid 0.5 mol/l) was 0.005, the “Distribution ratios of sodium” value ([4]; nitric acid 1.0 mol/l) was 0.01 and the “Distribution ratios of sodium” value ([4]; nitric acid 3.0 mol/l) was 0.1. The “Distribution ratios of sodium” value ([4]; nitric acid 5.0 mol/l) was 0.12, the “Distribution ratios, Pb” value ([5]; same extractant conditions) was 0.02 and the “Distribution ratios, Rb” value ([5]; initial 0.12 g/l, same extractant conditions) was 0.02. For the same molecule, the “Distribution ratios, Pd” value ([5]; initial 0.3 g/l, same extractant conditions) was 0.03, the “Distribution ratios, Mn” value ([5]; same extractant conditions) was 0.04 and the “Distribution ratios, Ru” value ([5]; same extractant conditions) was 0.004. For the same molecule, the “Distribution ratios, Ba” value [5] was 1.02, the “Distribution ratios, Cr” value ([5]; same extractant conditions) was 0.02 and the “Distribution ratios, Cs” value ([5]; same extractant conditions) was 1.8. The “Distribution ratios, Sr” value ([5]; same extractant conditions) was 0.02, the “Distribution ratios, Zr” value ([5]; same extractant conditions) was 0.038 and the “Distribution ratios, Ca” value ([5]; same extractant conditions) was 0.02. For the same molecule, the “Distribution ratios, Ni” value ([5]; same extractant conditions) was 0.03, the “Distribution ratios, Al” value [5] was 0.02 and the “Distribution ratios, Fe” value ([5]; same extractant conditions) was 0.014. The “Distribution ratios, Na” value ([5]; same extractant conditions) was 0.047, the “Distribution ratios, Rare-earth” value ([5]; same extractant conditions) was 0.04 and the “Distribution ratio before irradiation” value ([6]; Cs) was 2.83. For the same molecule, the “Distribution ratio DMe after irradiation” value ([6]; Cs, dose 100.0 kGr (10^7 rad)) was 2.83, the “Distribution ratio after irradiation, % of original” value (“Distribution ratio … % of original” for short) ([6]; Cs, dose 100.0 kGr (10^7 rad)) was 100.0% and the “Distribution ratio DMe after irradiation” value ([6]; Cs, dose 285.3 kGr) was 2.65. The “Distribution ratio … % of original” value ([6]; Cs, dose 285.3 kGr) was 93.8%.

For `C1CCC2OCCOCCOC3CCCCC3OCCOCCOC2C1` (stereo not drawn) [DCH18C6, bicyclohexane-18-crown-6], the “Sodium concentration” value [2, 8] was 0 mol/L, the “Sodium concentration” value [2, 9] was 0.003 mol/L and the “Sodium concentration” value [2, 10] was 0.005 mol/L. For the same molecule, the “Sodium concentration” value [2, 11] was 0.009 mol/L, the “Concentration of crown ether in an aqueous phase” value [3, 12] was 0.301 mol/l × 10^−3 and the “Concentration of crown ether in an aqueous phase” value [3, 13] was 0.344 mol/l × 10^−3. The “Concentration of crown ether in an aqueous phase” value ([3]; solvent Fluoroheptanol n3, H2O) was <0.027 mol/l × 10^−3, the “Concentration of crown ether in an aqueous phase” value [3, 14] was 0.086 mol/l × 10^−3 and the “Concentration of crown ether in an aqueous phase” value ([3]; solvent Tetrachloroethane, H2O) was 0.258 mol/l × 10^−3. For the same molecule, the “Concentration of crown ether in an aqueous phase” value [3, 15] was 0.139 mol/l × 10^−3, the “Concentration of crown ether in an aqueous phase” value ([3]; solvent Tetrachloropropane, H2O) was 0.968 mol/l × 10^−3 and the “Concentration of crown ether in an aqueous phase” value ([3]; solvent Tetrachloropropane, HNO3 3 mole/l) was 1.72 mol/l × 10^−3. The “Concentration of crown ether in an aqueous phase” value ([3]; solvent Trichlorethylene, H2O) was 0.65 mol/l × 10^−3, the “Concentration of crown ether in an aqueous phase” value [3, 16] was 0.94 mol/l × 10^−3 and the “Concentration of crown ether in an aqueous phase” value ([3]; solvent Trichlorobenzene, H2O) was 1.142 mol/l × 10^−3. For the same molecule, the “Concentration of crown ether in an aqueous phase” value [3, 17] was 2.016 mol/l × 10^−3, the “Distribution ratios of sodium” value ([4]; nitric acid 0 mol/l) was 0.1 and the “Distribution ratios of sodium” value ([4]; nitric acid 0.1 mol/l) was 0.12. For the same molecule, the “Distribution ratios of sodium” value ([4]; nitric acid 0.5 mol/l) was 0.12, the “Distribution ratios of sodium” value ([4]; nitric acid 1.0 mol/l) was 0.05 and the “Distribution ratios of sodium” value ([4]; nitric acid 3.0 mol/l) was 0.02. The “Distribution ratios of sodium” value ([4]; nitric acid 5.0 mol/l) was 0.01, the “Concentration of crown ether in the extracted products” value ([7]; Re-extract) was 172 Mg/l and the “Concentration of crown ether in the extracted products” value ([7]; Reclaim) was 30 Mg/l. For the same molecule, the “Concentration of crown ether in the extracted products” value ([7]; Refined product) was 80 Mg/l, the “Distribution ratios, Pb” value ([5]; same extractant conditions) was 4.2 and the “Distribution ratios, Mn” value ([5]; same extractant conditions) was 0.06. The “Distribution ratios, Ru” value ([5]; same extractant conditions) was 0.16, the “Distribution ratios, Ba” value [5] was 2.03 and the “Distribution ratios, Cr” value ([5]; same extractant conditions) was 0.02. For the same molecule, the “Distribution ratios, Cs” value ([5]; same extractant conditions) was 0.02, the “Distribution ratios, Sr” value ([5]; same extractant conditions) was 3.6 and the “Distribution ratios, Zr” value ([5]; same extractant conditions) was 0.018. The “Distribution ratios, Ca” value ([5]; same extractant conditions) was 0.12, the “Distribution ratios, Ni” value ([5]; same extractant conditions) was 0.023 and the “Distribution ratios, Al” value [5] was 0.03. For the same molecule, the “Distribution ratios, Fe” value ([5]; same extractant conditions) was 0.017, the “Distribution ratios, Na” value ([5]; same extractant conditions) was 0.01 and the “Distribution ratios, Rare-earth” value ([5]; same extractant conditions) was 0.04. For the same molecule, the “Distribution ratio before irradiation” value ([6]; Sr) was 3.6, the “Distribution ratio DMe after irradiation” value ([6]; Sr, dose 100.0 kGr (10^7 rad)) was 3.4 and the “Distribution ratio … % of original” value ([6]; Sr, dose 100.0 kGr (10^7 rad)) was 94.4%. The “Distribution ratio DMe after irradiation” value ([6]; Sr, dose 285.3 kGr) was 3.0 and the “Distribution ratio … % of original” value ([6]; Sr, dose 285.3 kGr) was 83.3%.
